Test results from publication PMC11650737, “Developing MYC Degraders Bearing the Von Hippel–Lindau Ligand to Target the “Undruggable” MYC” (ACS Pharmacology & Translational Science, 2024).
Where “and” joins values, the source holds several entries; their conditions need not be identical. Equal entries are not always repeated.

Tests used:
PC3 cells = assay: Cell uptake / intracellular concentration by LC-MS/MS, PC3; format: in vitro ADME, human; details: PC3, 24 h incubation with 10 μM
Method: Therefore, in order to better comprehend the observed activities of our degraders, following incubation of each compound with cells, the intracellular concentrations of the synthesized derivatives were evaluated in different cancer cell lines, as described previously.[28],[29] SKBR3, PC3, or A549 cells were incubated with PROTACs (at a 10 μΜ concentration) for selected time points, respectively. Upon sample treatment, compounds were extracted and analyzed by LC-MS/MS. Table 1 presents the percentage of the molecule that enters the cells after 24 h incubation at the 10 μM concentration. […] The small molecule MYCi361, used as a binding domain component of MYC, was also evaluated in the cell uptake assay (Table 1).
Cells were plated in 24-well plates at a density of 2 × 10^5 cells/well. 24 h after seeding, cells were incubated with each PROTAC (10 μΜ) for certain time points (1 h, 4 h, 8 h, and 24 h). The incubations were terminated at the selected time points by removing the medium and washing the cells twice with 1 mL cold PBS (1×) in each well in order to remove unbound PROTAC. Subsequently, the cells were lysed by adding a cold solution of ACN:H2O (3:2) and scraping off the cell monolayer. This process was done in two steps: first, 200 μL of ACN:H2O was added, the cells were scraped, and the cell lysate was collected. The second step involved the addition of an extra 100 μL of ACN:H2O, scraping, and collection of the remaining lysate. Samples were subsequently vortexed, sonicated, and centrifuged for 10 min at 13 000 rpm. The supernatants were collected, evaporated for 1 h at 55 °C, and stored at −20 °C until the day of analysis. Samples were then reconstituted in 200 μL of initial mobile phase (100% A), and the intracellular accumulation of PROTACs was determined by LC-MS/MS analysis using Warfarin as a stable internal standard and PROTAC standards for the construction of analytical standard curves.
The percentage of cell uptake was calculated as follows: [drawing 1]

[1] = system: various cancer cell lines; assay: Cell viability (MTT) assay, cell line not singled out; format: cell-based; details: Homo sapiens, 72 h, summary over cancer cell lines (breast and prostate), read-out: IC50 (antiproliferative activity)
Method: The antiproliferative activity of the synthesized compounds was tested in cell viability assays optimally set up for various cancer cell lines (results are depicted in Table 2, n = 3, average IC50 (μM) ± SD).
Cells were plated at a density of 5 × 10^3 cells per well on 96-well plates. After 24 h of incubation (37 °C, 5% CO2), the cell medium was removed, and compounds were added at selected concentrations (0.1–100 μM), followed by incubation for 72 h. Control cells were treated with 0.4% DMSO medium to match the conditions in the wells where drugs were added. After 72 h, the medium was removed, and the 3-(4,5-dimethylthiazol-2-yl)-2,5-diphenyltetrazolium bromide (MTT) solution (0.3 mg/mL in PBS) was added to cells for 3 h under no light conditions. The MTT solution was removed, and the formazan crystals were dissolved in 100 μL of DMSO. The optical density was measured at 570 nm with a reference wavelength of 690 nm using an absorbance microplate reader (SpectraMax 190, Molecular Devices, Sunnyvale, CA, USA). The half-maximal inhibitory concentration (IC50) was calculated based on a four-parameter logistic equation, generating a cell viability curve, using GraphPad Prism 6.01 (GraphPad Software, Inc.). […] The resulting absorbance values were used instead of IC50 calculation. […]

c-MYC = molecular target: T1, c-MYC (Homo sapiens, UniProt P01106); assay: MYC degradation in PC3 cells, Western blot; format: cell-based
T1 construct: endogenous in cells; host or cells: PC3
T1 sequence (P01106 whole entry): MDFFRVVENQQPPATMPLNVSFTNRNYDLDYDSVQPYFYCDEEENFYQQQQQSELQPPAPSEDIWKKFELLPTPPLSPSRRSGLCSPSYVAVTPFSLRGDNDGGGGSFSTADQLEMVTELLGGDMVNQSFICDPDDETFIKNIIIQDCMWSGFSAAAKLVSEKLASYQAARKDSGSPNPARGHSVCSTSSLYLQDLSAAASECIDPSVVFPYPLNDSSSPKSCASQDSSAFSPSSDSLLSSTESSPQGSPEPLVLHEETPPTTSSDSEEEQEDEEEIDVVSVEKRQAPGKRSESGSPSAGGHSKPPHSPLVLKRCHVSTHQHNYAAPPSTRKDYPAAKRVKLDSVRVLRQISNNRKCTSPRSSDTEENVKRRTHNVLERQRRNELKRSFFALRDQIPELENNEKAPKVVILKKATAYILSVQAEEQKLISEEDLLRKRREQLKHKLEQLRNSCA
Method: The ability of novel compounds to induce MYC degradation in the PC3 cell line was evaluated via a Western blot-based assay. […] A PROTAC that effectively degrades bromodomain and extra-terminal (BET) family proteins, with indirect action on MYC levels, BETd-260, was also included in these experiments as a positive control. BETd-260 was tested at a lower concentration (1 μΜ) due to its high potency.[26]
PC3 cells were used for the determination of MYC levels after treatment with the PROTACs under study. Cells (at a density of 250 000 per well) were seeded in 6-well plates for 24 h until 60% confluence. During the 24-h incubation period, cells were treated with the tested compounds (10 μΜ) and BETd-260 (1 μΜ) that was used as a positive control. For rescue experiments, cells were pretreated with the inhibitor MG-132 for 2 h, and then, the medium was removed, followed by the addition of the selected compound. After the 24-h incubation period, a cell lysis protocol was performed. The medium was removed, and the cells were rinsed with cold PBS. Lysis was induced using RIPA lysis buffer (50 mM Tris-HCl at pH 7.5, 150 mM NaCl, 5 mM Na2EDTA, 1 mM EGTA, 0.1% SDS, 1% NP-40, 0.5% sodium deoxycholate, 8 mM sodium fluoride, and 1 mM sodium orthovanadate) and protease inhibitor cocktail (Roche, UK). Total protein concentration in lysate samples was determined via performance of the Bradford assay in bovine serum albumin (BSA). Standard and unknown samples were preformulated in Coomassie blue G-250 assay reagent (Thermo Fisher Scientific, MA, USA), followed by a readout at 595 nm. Separation of the protein isolated from PC3 lysates, respectively (10 μg), with NuPAGE sample reducing agent and NuPAGE LDS sample buffer (Invitrogen, UK), was achieved via SDS-PAGE electrophoresis at 110 V for 2 h, prior to overnight transfer to the polyvinylidene difluoride (PVDF) membrane. The membranes were then blocked in 5% nonfat dry milk in Tris-buffered saline with 0.1% Tween-20 (TBST-T) for 1 h at room temperature.
Detection of MYC in PC3 cells was accomplished via immunoblot of the POI with the indicated monoclonal antibody (Cell Signaling Technology, MA, USA, catalog number #5605) at 1:1000 in TBST at […] overnight. The secondary anti-rabbit peroxidase-conjugate antibody (Cell Signaling Technology, MA, USA, catalog number #7074) was further added at 1:2000 dilution, followed by 1-h incubation at room temperature. Chemiluminescent visualization of the MYC protein bands was performed after the addition of Immobilon Crescendo Western HRP substrate (Sigma-Aldrich, Munich, Germany). For normalization of MYC concentration, GAPDH was labeled using the specific rabbit monoclonal antibody (Cell Signaling Technology, MA, USA, catalog number #5174) at 1:20000 in 5% nonfat dry milk. Protein bands were quantified with the ImageJ software.

Row | Uptake by cells (PC3 cells) | IC50 [1] [µM] | dose dependence of MYC degradation (c-MYC; 1–20 μΜ, 24 h) | c-MYC degradation after short treatment (c-MYC; 10 μΜ, 3 h) | MYC degradation (MYC levels by Western blot) (c-MYC; 10 μΜ, 24 h) | MYC levels after pretreatment with proteasome inhibitor MG-132 (c-MYC; MG-132 10 μΜ 2 h, then compound 10 μΜ 24 h, versus control group) | Structure (SMILES)
1 | 19% and 19 ± 4% | 13 to 18 |  |  |  |  | Cc1ncsc1-c1ccc(CNC(=O)[C@@H]2C[C@@H](O)CN2C(=O)[C@@H](NC(=O)CCC(=O)NCCCOc2ccc(-c3cc(C(F)(F)F)nn3C)c(O)c2-c2cc(C(F)(F)F)cc(C(F)(F)F)c2)C(C)(C)C)cc1 [CSI86]
2 | 13% and 13 ± 3% | 13 to 18 | dose-dependent manner | effectively mediated c-MYC degradation | significantly active | no reduction in MYC levels | Cc1ncsc1-c1ccc(CNC(=O)[C@@H]2C[C@@H](O)CN2C(=O)[C@@H](NC(=O)CCCC(=O)NCCCOc2ccc(-c3cc(C(F)(F)F)nn3C)c(O)c2-c2cc(C(F)(F)F)cc(C(F)(F)F)c2)C(C)(C)C)cc1 [CSI107]
3 |  |  |  |  | No particular effect |  | Cc1ncsc1-c1ccc(CNC(=O)[C@@H]2C[C@@H](O)CN2C(=O)[C@@H](NC(=O)COCCOCC(=O)NCCCOc2ccc(-c3cc(C(F)(F)F)nn3C)c(O)c2-c2cc(C(F)(F)F)cc(C(F)(F)F)c2)C(C)(C)C)cc1 [CSI135]
